From article PMC6766947, “Multi-Armed 1,2,3-Selenadiazole and 1,2,3-Thiadiazole Benzene Derivatives as Novel Glyoxalase-I Inhibitors” (Molecules, 2019)

Molecular target: T1, human recombinant Glo-I (rhGlo-I) (Homo sapiens, UniProt Q04760)
T1 construct: purchased R&D Systems
T1 sequence (Q04760 2-184 limits assumed): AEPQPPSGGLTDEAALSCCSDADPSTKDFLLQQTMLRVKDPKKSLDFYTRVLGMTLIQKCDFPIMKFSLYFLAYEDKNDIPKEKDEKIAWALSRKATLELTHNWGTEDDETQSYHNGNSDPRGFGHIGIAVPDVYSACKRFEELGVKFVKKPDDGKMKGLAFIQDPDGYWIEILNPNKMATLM
Experiment: In vitro Glo-I enzyme inhibition assay (UV-Vis, 240 nm)
Assay type: biochemical
Settings: for IC50: rhGlo-I, triplicates, 240 nm, 200 s, 25 °C, pH 7.0–7.2
Experimental: A total of twelve synthesized multi-arm benzene derivatives of 1,2,3-selenadiazole and 1,2,3-thiadiazole by M. Al-Smadi et al. were selected for the present study. The in vitro inhibitory activity of the compounds against the human Glo-I enzyme was measured using double-beam UV-Vis spectrophotometer (Biotech Engineering Management Co. Ltd., UK).
The Glo-I inhibitory activity was determined as reported previously. Briefly, human recombinant Glo-I (rhGlo-I), provided by R&D Systems® Corporation, was reconstituted by dissolving 0.5 mg/mL of it in sterile, deionized water before storing at –70 °C. The tested compounds were dissolved in DMSO to 10 mM stock solution. The assay buffer was prepared by mixing 0.1 M sodium phosphate dibasic solution and 0.1 M sodium phosphate monobasic solution with a pH of 7.0–7.2. The substrate mixture was prepared by mixing a suitable volume of 0.1 M sodium phosphate assay buffer with 100 mM methylglyoxal solution and 100 mM reduced glutathione. Finally, the tested compounds were mixed with the assay buffer, substrate solution mixture, and the Glo-I enzyme in a cuvette at an appropriate tested concentration. Each compound was tested in triplicates at λmax = 240 nm for 200 s at 25 °C.

Compound | IC50 [nM] | activity relative to selenium containing counterpart (fold difference in Glo-I inhibitory activity, sulfur vs selenium analogue)
c1c(COc2ccc(-c3csnn3)cc2)cc(COc2ccc(-c3csnn3)cc2)cc1COc1ccc(-c2csnn2)cc1 [Compound 8] | 3000 ± 150 | 
c1cc(-c2csnn2)ccc1OCc1cc(COc2ccc(-c3csnn3)cc2)c(COc2ccc(-c3csnn3)cc2)cc1COc1ccc(-c2csnn2)cc1 [Compound 10] | 2400 ± 130 | eight times more active
c1cc(-c2c[se]nn2)ccc1OCc1c(COc2ccc(-c3c[se]nn3)cc2)c(COc2ccc(-c3c[se]nn3)cc2)c(COc2ccc(-c3c[se]nn3)cc2)c(COc2ccc(-c3c[se]nn3)cc2)c1COc1ccc(-c2c[se]nn2)cc1 [Compound 11] | 8300 ± 560 | 
c1cc(-c2csnn2)ccc1OCc1c(COc2ccc(-c3csnn3)cc2)c(COc2ccc(-c3csnn3)cc2)c(COc2ccc(-c3csnn3)cc2)c(COc2ccc(-c3csnn3)cc2)c1COc1ccc(-c2csnn2)cc1 [Compound 12] | 2670 ± 310 | 
